Data taken from patent US20070129344A1, “Bicyclic 6-alkylidene-penem beta-lactamase inhibitors and beta-lactam antibiotic combination: a broad spectrum antibiotic” (priority 2005, published 2007).
In brackets after ≈: the same amount, converted by molar mass. Read-outs that look alike come from different tables or passages of the source.

Experiments:
[1] = system: E. coli GC 2883 (OXA-10/PSE-2); experiment: MIC microbroth dilution; β-lactamase class D; type: cell-based; settings: Cefepime alone, control of Compound 2 test
Procedure: (§1) The in vitro activities of the antibiotics were determined by the microbroth dilution method as recommended by the National Committee for Clinical Laboratory Standards (NCCLS). (NCCLS. 2000. Methods for Dilution Antimicrobial Susceptibility Tests for Bacteria That Grow Aerobically; Approved Standards: M7-A5, vol. 19. National Committee for Clinical Laboratory Standards, Villanova, Pa.). Mueller-Hinton II broth (MHBII)(BBL Cockeysville, Md.), was used for the testing procedure. […]. The plates were incubated for 18-22 hours at 35° C. in ambient air.

[2] = system: K. pn GC 3104 (MIR-1 + TEM-1); experiment: MIC microbroth dilution; β-lactamase class A, C; type: cell-based, K. pneumoniae; settings: Klebsiella pneumoniae, Cefepime alone, read-out: MIC
Procedure: as §1

[3] = system: K. pn GC 6655 (TEM-1 + ACT-1); experiment: MIC microbroth dilution; β-lactamase class A, C; type: cell-based, K. pneumoniae; settings: Klebsiella pneumoniae, Cefepime alone, read-out: MIC
Procedure: as §1

[4] = system: A. baumannii PT 9444 PTZ-R; experiment: MIC microbroth dilution; β-lactamase class not determined; type: cell-based
Procedure: as §1

[5] = system: C. freundii PT 1499 Stably derepressed AmpC; experiment: MIC microbroth dilution; β-lactamase class C; type: cell-based; settings: Citrobacter freundii, Cefepime alone
Procedure: as §1

[6] = system: C. freundii GC 4187 Stably derepressed AmpC; experiment: MIC microbroth dilution; β-lactamase class C; type: cell-based; settings: Citrobacter freundii, Cefepime alone, control of Compound 1 test
Procedure: as §1

[7] = system: P. aeruginosa GC 4161 Stably derepressed AmpC; experiment: MIC microbroth dilution; β-lactamase class C; type: cell-based
Procedure: as §1

[8] = system: S. marcescens GC 4132 Stably derepressed AmpC; experiment: MIC microbroth dilution; β-lactamase class C; type: cell-based; settings: Cefepime alone, control of Compound 2 test
Procedure: as §1

[9] = system: E. coli GC 1499 (TEM-4 + TEM-1); experiment: MIC microbroth dilution; β-lactamase class A, A (ESBL); type: cell-based; settings: Cefepime alone
Procedure: as §1

[10] = system: E. coli GC 1695 (TEM-1 + TEM-10); experiment: as above; type: cell-based; settings: Cefepime alone
Procedure: as §1

[11] = system: E. coli GC 5901 (TEM-1 and SHV-8); experiment: as above; type: cell-based; settings: Cefepime alone
Procedure: as §1

[12] = system: E. coli GC 6260 (TEM-1 + SHV-5); experiment: as above; type: cell-based; settings: Cefepime alone
Procedure: as §1

[13] = system: E. coli GC 2146 (TEM-1; SHV-7); experiment: as above; type: cell-based; settings: Cefepime alone
Procedure: as §1

[14] = system: E. coli GC 2015 (TEM-10 + SHV-1); experiment: as above; type: cell-based; settings: Cefepime alone
Procedure: as §1

[15] = system: K. pneumoniae GC 7645 TEM-30 TEM-1 KPC-2 SHV-12; experiment: MIC microbroth dilution; β-lactamase class A, A (Cb'ase), A (ESBL), A(IRT); type: cell-based
Procedure: as §1

[16] = system: C. freundii GC 4171 TEM-1 + InducibleAmpC; experiment: MIC microbroth dilution; β-lactamase class A, C; type: cell-based
Procedure: as §1

[17] = system: K. pn GC 2391 (pl 5.4; 5.6; 7.6; 8.7 B-lactamases); experiment: MIC microbroth dilution; β-lactamase class A, A (ESBL), C; type: cell-based, K. pneumoniae; settings: Klebsiella pneumoniae, Cefepime alone, read-out: MIC
Procedure: as §1

K. pn GC 1516 (TEM-26) = experiment: MIC microbroth dilution; β-lactamase class A (ESBL); type: cell-based, K. pneumoniae; settings: Cefepime alone
Procedure: as §1

K. pn GC 1510 (TEM-10) = experiment: as above; type: cell-based, K. pneumoniae; settings: Klebsiella pneumoniae, Cefepime alone, read-out: MIC
Procedure: as §1

[18] = system: K. oxytoca GC 7627 TEM-1 K1 KPC-2; experiment: MIC microbroth dilution; β-lactamase class A, A (Cb'ase); type: cell-based
Procedure: as §1

[19] = system: A. baumannii GC 7685 TEM-1; experiment: MIC microbroth dilution; β-lactamase class A; type: cell-based
Procedure: as §1

E. coli ATCC 35218 TEM-1 = experiment: MIC microbroth dilution; β-lactamase class A; type: cell-based
Procedure: as §1

E. coli GC 2253 (IRT-2) = experiment: MIC microbroth dilution; β-lactamase class A (IRT); type: cell-based; settings: Escherichia coli, Cefepime alone, control of Compound 1 test
Procedure: as §1

E. coli GC 2009 (TEM-10) = experiment: MIC microbroth dilution; β-lactamase class A (ESBL); type: cell-based
Procedure: as §1

[20] = system: A. baumannii GC 6662 IMI-R; experiment: MIC microbroth dilution; class PBP (penicillin binding protein); type: cell-based; settings: Cefepime alone
Procedure: as §1

[21] = system: A. baumannii GC 6660 IMI-R; experiment: as above; type: cell-based; settings: Cefepime alone
Procedure: as §1

[22] = system: A. baumannii GC 6661 IMI-R; experiment: as above; type: cell-based; settings: Cefepime alone
Procedure: as §1

[23] = system: K. pneumoniae GC 7636 TEM-1 KPC-2 SHV-12; experiment: MIC microbroth dilution; β-lactamase class A, A (Cb'ase), A (ESBL); type: cell-based
Procedure: as §1

[24] = system: P. aeruginosa PT 9236 PTZ-R; experiment: MIC microbroth dilution; type: cell-based; settings: Cefepime alone
Procedure: as §1

[25] = system: P. aeruginosa PT 9587 PTZ-R; experiment: MIC microbroth dilution; type: cell-based; settings: Cefepime alone
Procedure: as §1

[26] = system: P. aeruginosa PT 8411 PTZ-R; experiment: MIC microbroth dilution; type: cell-based; settings: Cefepime alone
Procedure: as §1

[27] = system: P. aeruginosa PT 8503 PTZ-R; experiment: MIC microbroth dilution; type: cell-based; settings: Cefepime alone
Procedure: as §1

[28] = Escherichia coli, control of Compound 1 test, read-out: MIC

CO/N=C(\C(=O)N[C@@H]1C(=O)N2C(C(=O)[O-])=C(C[N+]3(C)CCCC3)CS[C@H]12)c1csc(N)n1 [Cefepime, reference compound]
MIC [1]: 0.06 µg/mL (≈ 0.125 µM) | MIC ([2]; control of Compound 1 test): 0.5 µg/mL (≈ 1.04 µM) | MIC ([2]; control of Compound 2 test): 1 µg/mL (≈ 2.08 µM) | MIC ([3]; control of Compound 1 test): 2 µg/mL (≈ 4.16 µM) | MIC ([3]; control of Compound 2 test): 4 µg/mL (≈ 8.32 µM) | MIC ([4]; A. baumannii PT 9444, Cefepime alone, control of Compound 2 test): >16 µg/mL | MIC ([4]; Acinetobacter baumannii, PT9444PTZR): > 16 µg/mL | MIC ([5]; control of Compound 1 test): 4 µg/mL (≈ 8.32 µM) | MIC ([5]; control of Compound 2 test): 2 µg/mL (≈ 4.16 µM) | MIC [6]: 2 µg/mL (≈ 4.16 µM) | MIC ([7]; P. aeruginosa GC 4161, Cefepime alone, control of Compound 2 test): >16 µg/mL | MIC ([7]; Pseudomonas aeruginosa): > 16 µg/mL | MIC [8]: 0.50 µg/mL (≈ 1.04 µM) | MIC ([9]; control of Compound 2 test): >16 µg/mL | MIC [9, 28]: > 16 µg/mL | MIC ([10]; control of Compound 2 test): >16 µg/mL | MIC [10, 28]: > 16 µg/mL | MIC ([11]; control of Compound 2 test): >16 µg/mL | MIC [11, 28]: > 16 µg/mL | MIC ([12]; control of Compound 2 test): >16 µg/mL | MIC [12, 28]: > 16 µg/mL | MIC ([13]; control of Compound 2 test): >16 µg/mL | MIC [13, 28]: > 16 µg/mL | MIC ([14]; control of Compound 2 test): >16 µg/mL | MIC [14, 28]: > 16 µg/mL | MIC ([15]; K. pneumoniae GC 7645, Cefepime alone, control of Compound 2 test): >16 µg/mL | MIC ([15]; Klebsiella pneumoniae): > 16 µg/mL | MIC ([16]; C. freundii GC 4171, Cefepime alone, control of Compound 2 test): 4 µg/mL (≈ 8.32 µM) | MIC ([16]; Citrobacter freundii): 4 µg/mL (≈ 8.32 µM) | MIC ([17]; control of Compound 1 test): 16 µg/mL (≈ 33.3 µM) | MIC ([17]; control of Compound 2 test): 4 µg/mL (≈ 8.32 µM) | MIC (K. pn GC 1516 (TEM-26); control of Compound 2 test): >16 µg/mL | MIC (K. pn GC 1516 (TEM-26); Klebsiella pneumoniae, control of Compound 1 test, read-out: MIC): > 16 µg/mL | MIC (K. pn GC 1510 (TEM-10); control of Compound 1 test): 0.5 µg/mL (≈ 1.04 µM) | MIC (K. pn GC 1510 (TEM-10); control of Compound 2 test): 2 µg/mL (≈ 4.16 µM) | MIC ([18]; K. oxytoca GC 7627, Cefepime alone, control of Compound 2 test): >16 µg/mL | MIC ([18]; Klebsiella oxytoca): > 16 µg/mL | MIC ([19]; A. baumannii GC 7685, Cefepime alone, control of Compound 2 test): >16 µg/mL | MIC ([19]; Acinetobacter baumannii, GC7685TEM1): > 16 µg/mL | MIC (E. coli ATCC 35218 TEM-1; E. coli ATCC 35218, Cefepime alone, control of Compound 2 test): 0.03 µg/mL (≈ 0.0624 µM) | MIC (E. coli ATCC 35218 TEM-1; Escherichia coli, ATCC35218): 0.03 µg/mL (≈ 0.0624 µM) | MIC (E. coli GC 2253 (IRT-2)): 0.03 µg/mL (≈ 0.0624 µM) | MIC (E. coli GC 2009 (TEM-10); E. coli GC 2009, Cefepime alone, control of Compound 2 test): >16 µg/mL | MIC (E. coli GC 2009 (TEM-10); Escherichia coli): > 16 µg/mL | MIC ([20]; Acinetobacter baumannii, GC6662IMIR, control of Compound 1 test, read-out: MIC): > 16 µg/mL | MIC ([20]; control of Compound 2 test): >16 µg/mL | MIC ([21]; Acinetobacter baumannii, GC6660IMIR, control of Compound 1 test, read-out: MIC): > 16 µg/mL | MIC ([21]; control of Compound 2 test): >16 µg/mL | MIC ([22]; Acinetobacter baumannii, GC6661IMIR, control of Compound 1 test, read-out: MIC): > 16 µg/mL | MIC ([22]; control of Compound 2 test): >16 µg/mL | MIC ([23]; K. pneumoniae GC 7636, Cefepime alone, control of Compound 2 test): >16 µg/mL | MIC ([23]; Klebsiella pneumoniae): > 16 µg/mL | MIC ([24]; control of Compound 2 test): >16 µg/mL | MIC ([24]; Pseudomonas aeruginosa, PT9236PTZR, control of Compound 1 test, read-out: MIC): > 16 µg/mL | MIC ([25]; control of Compound 2 test): 4 µg/mL (≈ 8.32 µM) | MIC ([25]; Pseudomonas aeruginosa, PT9587PTZR, control of Compound 1 test, read-out: MIC): 4 µg/mL (≈ 8.32 µM) | MIC ([26]; control of Compound 2 test): 16 µg/mL (≈ 33.3 µM) | MIC ([26]; Pseudomonas aeruginosa, PT8411PTZR, control of Compound 1 test, read-out: MIC): 16 µg/mL (≈ 33.3 µM) | MIC ([27]; control of Compound 2 test): 8 µg/mL (≈ 16.6 µM) | MIC ([27]; Pseudomonas aeruginosa, PT8503PTZR, control of Compound 1 test, read-out: MIC): 8 µg/mL (≈ 16.6 µM)
